Laboratory results reported in US12274731B1, “Polybasic antimalarial agents and methods of use thereof” (priority 2018, dated 2025).
Where two headings read alike, the source gives them in different places.

Experiments:
[1] = test system: Plasmodium falciparum (Dd2 and Nf54); test: P. falciparum growth assay / dose-response in human erythrocyte culture (parasitemia after 72 h, acridine orange, FACS); type: cell-based; conditions: for parasite growth (endpoint parasitemia, percentage of control): 72-hour treatment, equal concentrations in the media; for IC50: P. falciparum in human erythrocytes, about 72 hours post compound addition
Text: FIG. 4A-FIG. 4D. […] DHHC8 transcript codes for five consecutive lie-residues. Levels of each transcript are normalized to total ribosome levels and represented as a ratio of transcript levels under Ile starvation (−Ile) over the control conditions (+Ile). […] Western blot analysis of Ile starved (−Ile), and control (+Ile) sample are normalized to PfHAD1 (PF3D7_1033400) levels. HA-tagged P. falciparum Pelo protein was CRISPR/Cas9 engineered and detected using mouse HA-antibody. The molecular weight of each protein is indicated. […] (D) P. falciparum growth assay in the presence of different compounds and amino acid polymers. Data represent endpoint parasitemia after 72-hour treatment with the indicated compound. Results are normalized to non-treated cultures (control) and presented as a percentage of control samples. Average value from three biological replicates is reported with standard deviation.
The lack of P. falciparum taxis during invasion of host cells, alterations in cytoadhesive properties of infected erythrocytes and previously shown invasion-blocking effects of heparin prompted testing whether poly-lysine repeats in P. falciparum membrane proteins contribute to the overall efficiency of parasite invasion of host erythrocytes.
For FIG. 21-FIG. 25, the general procedure for the drug assays included a total sample volume of 200 μl, every concentration was performed in triplicate, hematocrit was 2%, and starting parasitemia was 1%. The starting concentration of drug was 100 μg/ml and the serial dilution was made from the starting concentration. The end concentration was 0.39 μg/ml). The control represents growth of the parasite culture without added drug. All samples were subjected to Acridine orange staining and the FACS analysis was done on 96 well plates. FlowJo was used to calculate parasitemia.
Dose-response experiments were performed in triplicate with mixed culture of P. falciparum (1.0%-1.2% starting parasitemia). Parasitemias (percentage of total erythrocytes infected with parasites) were measured approximately 72 hours post compound addition by nucleic acid staining of infected red blood cells with 0.8 mg/ml acridine orange in PBS. Inhibition data were fit to a sigmoidal dose-response curve was done using Graphpad Prism 5.0.

uninfected human cells = test: Binding to uninfected human cells (fluorescence microscopy); type: cell-based
Procedure: Here, the same procedure as for above (FIG. 19) was performed for the cell culture, except for the incubation volume was 1 ml in PBS and the images were taken on a lab microscope.

[2] = test system: mCherry labelled P. berghei; test: Treatment of mice infected with mCherry labelled P. berghei; type: in vivo; conditions: 4 doses, over 7 days of infection
Text: Intraperitoneal treatment of mice results in the reduction of parasitemia over 2 days (see e.g., FIG. 25).

human erythrocytes = test: Hemolysis in erythrocyte culture; type: cell-based; conditions: at IC50
[3] = Structure preservation of crystalline PLL; type: physicochemical; conditions: 37° C.

Substance	activity against Plasmodium / malaria [1]	parasite growth (endpoint parasitemia, percentage of control) [1]	IC50 [1]	binding to other human cells (uninfected human cells) (uninfected human cells)	also measured
10-L-lysines (SEQ ID NO: 4): Poly (L) lysine of 10 residues in length, from Alamanda polymers (KKKKKKKKKK; Synthetic polybasic peptide)	no activity				
heparin		inhibiting parasite growth	12 µg/mL		
poly-L-lysine		efficient reduction of parasite growth	9 µg/mL	do not detectably bind	parasitemia [2]: reduces parasitemia; hemolysis (human erythrocytes): without hemolysis; structure preservation [3]: preserves structure
poly-L-ornithine		efficient reduction of parasite growth		do not detectably bind	
poly-glutamate		did not affect the growth of parasites			
poly-ε-L-lysine	not shown to be effective				activity against Plasmodium / malaria ([1]; listed as Epsilon poly-lysine): did not appear to have activity
